Legend:
MCT1 = assay: Localization of MCT1 to mitochondria (Western blot of isolated T cell mitochondria); type: cell-based, mouse; details: for expression / localization of MCT1 in mitochondria: Western blot of isolated T cell mitochondria
Source text: The inventor further explored the molecular mechanism by which LC led to the shunting of lactic acid to mitochondria. Entry of lactic acid into mitochondria requires the localization of MCT1 to the inner mitochondrial membrane IMM (Redox Biol. 2020 August;35:101454). […] MCT1 is generally recognized as a secreted protein with an endoplasmic reticulum-targeting sequence that enters the endoplasmic reticulum and localizes to the plasma membrane. We hypothesized that LC could induce MCT1 variants with mitochondrial targeting sequences (MTSs). However, no MCT1 variant was found in LC-treated T cells by sequencing analysis, and only one transcript of MCT1 was found after alignment analysis on NCBI. A MTS was found at the N-terminus of MCT-1protein by protein sequence analysis, which was present downstream of the endoplasmic reticulum targeting sequence, forming a double-peak chimeric sequence. This double-peak sequence may direct MCT-1 to target the endoplasmic reticulum or mitochondria, and may be regulated by serine/threonine phosphorylation of PKA or PKC (Avadhani, N. G. 2011. FEBS J 278, 4218-4229).

CD8^+ T cells [1] = assay: Cytosolic Ca2+ / lysosomal Ca2+ release in CD8+ T cells; type: cell-based, mouse; details: for increase in cytosolic Ca^2+ concentrations in CD8^+ T cells induced by LC: blocking calcium release from endoplasmic reticulum or mitochondria; for Ca^2+ release in lactic acid-treated CD8^+ T cells: increasing lysosomal pH value
Source text: Next, we investigated the molecular mechanism by which LC activated TFEB in CD8^+ T cells. It has been reported (Nat Cell Biol. 2015 March;17(3):288-99) that in addition to being able to degrade exogenous or endogenous biomacromolecules, lysosomes, like endoplasmic reticulum and mitochondria, are also storage sites for Ca^2+ and can initiate the transduction of calcium-related downstream signals.
(§1) In order to better track the flow of H^+, ^2D (deuterium)-acetic acid (DAC) or ^2D-sulfuric acid (D2SO4) was added to the culture medium of CD8^+ T cells. […] The K-loop of V-ATPase is located in the hydrophobic lipid bilayer and is essential for the pumping of cytosolic H^+ into the lysosomal lumen. Li^+ has been reported to bind to the K-loop of V-ATPase in Enterococcus hirde and induce deprotonation of the Glul39 residue (J. Am. Chem. Soc. 2011.133. 2860-2863).

V-ATPase = assay: V0C expression, V-ATPase activity and lysosomal pH in lactic acid-treated CD8+ T cells; type: cell-based, mouse
Experimental: In order to further elucidate the mechanism by which histone lactylation modification regulates T cell function, the downstream target genes regulated by histone lactylation modification were explored by using ChIP-Seq experiments, and the enrichment scores of genes corresponding to histone lactylation sites were calculated. […] ATP6V0C gene encodes the V0 subunit C protein in V-ATPase that plays a key role in pumping H^+, which is responsible for pumping cytosolic H^+ into the lysosomal lumen and thus maintaining the low pH value of lysosomes. […] Therefore, exogenous lactic acid results in lactylation of histones and thus up-regulating ATP6V0C expression and activity, thereby shunting cytosolic H^+ into lysosomes in response to cytosolic acid stress, but lysosomal acidification may inhibit the activity of CD8^+ T cells.

CD8^+ T cells [2] = assay: Exogenous lactic acid on CD3/CD28-activated CD8+ T cells (flow cytometry, qPCR, ELISA, CTV); type: cell-based, C57BL/6J mouse; details: exogenous lactic acid at different concentrations, dose-dependent
Source text: In order to further explore the effect of lactic acid on CD8^+ T cells, we used C57BL/6J mouse spleen-derived CD8^+ T cells to be activated by CD3/CD28 magnetic beads and stimulated by exogenous lactic acid at different concentrations.

CD8^+ T cells [3] = assay: Lactyl-CoA (LC-MS/MS) and histone lactylation (Western blot, anti-pan-Kla) in CD8+ T cells; type: cell-based, mouse; details: after treating CD8+ T cells with exogenous lactic acid
Source text: We further investigated the effect of lactic acid distributed in the nucleus on the function of CD8^+ T cells. In 2019, Zhao […] team discovered a new type of histone epigenetic modification, lactylation modification (Kla), which can regulate the phenotype and function of macrophages (Nature. 2019 October: 574 (7779): 575-580). On this basis, we hypothesized that lactic acid entering the nucleus would lead to lactylation modification of histones, thereby regulating the function of CD8^+ T cells.

CD8^+ T cells [4] = assay: Entry and subcellular distribution of lactate and hydrogen ions in CD8+ T cells (lysosensor, LC-MS/MS); type: cell-based, mouse
Experimental: CD8^+ T cells were treated with exogenous hydrochloric acid (HCl) or sodium lactate (NaLa) as controls, and the entry of lactate and hydrogen ions into the cells was detected.
When exogenous lactic acid enters the cell, excess hydrogen ions are further transported to acidic organelles, such as lysosomes, in order to maintain the stability of the cytoplasmic pH values.

lysosomal V-ATPase = assay: Lysosomal pH, Atp6v0c, H+ (deuterium) flow and Li+ accumulation in CD8+ T cells; type: cell-based, mouse
Experimental: as §1

CN1CCN(c2nc(C3=C(c4c[nH]c5ccccc45)C(=O)NC3=O)c3ccccc3n2)CC1 [Sotrastaurin]
localization of MCT1 to mitochondria induced by LC (MCT1; kinase inhibitors added, results not shown): almost completely blocked

Ryanodine
increase in cytosolic Ca^2+ concentrations in CD8^+ T cells induced by LC (CD8^+ T cells [1]): did not affect

CCCCCCCCCCCCCC(=O)O[C@@H]1[C@@H](C)[C@@]2(O)[C@@H](C=C(CO)C[C@]3(O)C(=O)C(C)=C[C@@H]23)[C@@H]2C(C)(C)[C@]12OC(C)=O [PMA]
expression / localization of MCT1 in mitochondria (MCT1): significantly increased

CC(O)C(=O)O (stereo not drawn) [lactic acid]
activity of V-ATPase (V-ATPase; CD8+ T cells): significantly up-regulated | protein expression of V0C (V-ATPase; CD8+ T cells): significantly up-regulated | lysosomal pH value (V-ATPase; exogenous lactic acid, decreasing from 5.4): 4.4 | activation of CD8^+ T cells (CD25 expression; gene and protein expression of IL-2, IFN-γ, TNF-α) (CD8^+ T cells [2]; CD3/CD28 magnetic beads): significantly inhibited | apoptosis of CD8^+ T cells (CD8^+ T cells [2]): significantly promoted | proliferation of CD8^+ T cells (CTV proliferation assay) (CD8^+ T cells [2]): significantly inhibited | expression / localization of MCT1 in mitochondria (MCT1): significantly reduced | content of lactyl-CoA (LC-MS/MS) (CD8^+ T cells [3]): significantly increased | level of histone lactylation (Western blotting, anti-pan-Kla antibody) (CD8^+ T cells [3]): significantly increased | lysosome acidification (lysosensor staining) (CD8^+ T cells [4]): rapidly acidify lysosomes | entry of lactate and hydrogen ions into the cells (CD8^+ T cells [4]; HCl or sodium lactate as controls): simultaneously transported into the cells | expression of lysosome-related gene Atp6v0c (lysosomal V-ATPase): significantly up-regulated | lactylation of the Atp6v0c gene (ChIP-seq) (lysosomal V-ATPase): high level of lactylation

CO/C1=C\C(C)=C\[C@@H](C)[C@@H](O)[C@@H](C)C/C(C)=C/C=C/[C@H](OC)[C@@H]([C@@H](C)[C@@H](O)[C@H](C)[C@@]2(O)C[C@@H](O)[C@H](C)[C@@H](C(C)C)O2)OC1=O [bafilomycin A1]
Ca^2+ release (CD8^+ T cells [1]; LC-treated CD8+ T cells with bafilomycin A1): reduced | Ca^2+ release in lactic acid-treated CD8^+ T cells (CD8^+ T cells [1]): promote | entry of Li^+ into lysosomes (lysosomal V-ATPase; LC-treated CD8+ T cells): blocked

O=C1CSC(c2ccccc2Cl)c2cc(Cl)ccc2N1 (stereo not drawn) [CGP37157]
increase in cytosolic Ca^2+ concentrations in CD8^+ T cells induced by LC (CD8^+ T cells [1]): did not affect

CCN(CC)CCCC(C)Nc1ccnc2cc(Cl)ccc12 (stereo not drawn) [chloroquine]
Ca^2+ release in lactic acid-treated CD8^+ T cells (CD8^+ T cells [1]): promote

From US20250276008A1, “USE OF LITHIUM-CONTAINING COMPOUNDS IN TREATMENT OF TUMORS” (Institute of Basic Medical Sciences Chinese Academy of …, priority 2023, published 2025)
